Data taken from ChEMBL document CHEMBL1201862, “PubChem BioAssay data set” (2004).
Activity calls are given as the source filed them.

Experiments:
Bcl-2-like protein 10 = molecular target: T1, Bcl-2-like protein 10 (Homo sapiens, UniProt Q9HD36); test: displacers of TR3 peptide from Bcl-B, primary screen, selectivity assay for Bfl-1 inhibitor project, biochemical, fluorescence polarization, FITC-TR3 peptide (AID 748);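 also: fluorescence polarization from a fluorescein-labelled TR3 peptide binding purified Bcl-B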
T1 sequence (Q9HD36 whole entry): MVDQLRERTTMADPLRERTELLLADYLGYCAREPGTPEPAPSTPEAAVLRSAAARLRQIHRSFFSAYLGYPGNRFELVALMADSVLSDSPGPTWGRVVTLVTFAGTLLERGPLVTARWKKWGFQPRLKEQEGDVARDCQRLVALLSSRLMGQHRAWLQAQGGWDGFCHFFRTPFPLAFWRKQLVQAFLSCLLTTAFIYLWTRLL

[1] = molecular target: DNA dC->dU-editing enzyme APOBEC-3G (Homo sapiens, UniProt Q9HC16); test: Dose Response confirmation of small molecule APOBEC3G DNA Deaminase Inhibitors via a fluorescence-based single-stranded DNA deaminase assay. [Related pubchem assays (depositor defined):AID493012, AID493028]; assay type: functional
Sequence of DNA dC->dU-editing enzyme APOBEC-3G (Q9HC16 whole entry): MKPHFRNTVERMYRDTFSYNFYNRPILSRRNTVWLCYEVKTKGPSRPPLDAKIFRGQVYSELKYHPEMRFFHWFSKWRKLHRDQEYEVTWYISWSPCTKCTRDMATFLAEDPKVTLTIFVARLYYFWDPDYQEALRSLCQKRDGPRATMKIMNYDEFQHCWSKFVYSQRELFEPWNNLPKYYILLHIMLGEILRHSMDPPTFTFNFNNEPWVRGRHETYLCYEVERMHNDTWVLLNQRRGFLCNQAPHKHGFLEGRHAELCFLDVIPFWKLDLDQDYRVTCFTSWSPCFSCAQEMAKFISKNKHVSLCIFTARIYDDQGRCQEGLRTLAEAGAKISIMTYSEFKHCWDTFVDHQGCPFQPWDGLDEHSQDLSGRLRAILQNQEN

[2] = molecular target: T2, Kappa-type opioid receptor (Homo sapiens, UniProt P41145); assay type: functional
T2 sequence (P41145 whole entry): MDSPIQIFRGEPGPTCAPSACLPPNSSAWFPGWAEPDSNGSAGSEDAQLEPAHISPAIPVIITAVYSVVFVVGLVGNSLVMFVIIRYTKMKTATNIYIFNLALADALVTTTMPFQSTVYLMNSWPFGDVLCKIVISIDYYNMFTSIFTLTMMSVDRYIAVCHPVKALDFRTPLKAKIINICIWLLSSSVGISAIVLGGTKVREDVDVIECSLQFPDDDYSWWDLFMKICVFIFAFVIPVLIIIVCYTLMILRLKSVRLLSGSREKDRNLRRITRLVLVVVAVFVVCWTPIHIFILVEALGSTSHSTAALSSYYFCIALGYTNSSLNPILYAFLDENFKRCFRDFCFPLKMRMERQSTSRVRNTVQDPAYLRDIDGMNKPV

Beta-galactosidase = Beta-galactosidase (Escherichia coli, UniProt Q8VNN2); assay type: functional
Sequence of Beta-galactosidase (Q8VNN2 whole entry): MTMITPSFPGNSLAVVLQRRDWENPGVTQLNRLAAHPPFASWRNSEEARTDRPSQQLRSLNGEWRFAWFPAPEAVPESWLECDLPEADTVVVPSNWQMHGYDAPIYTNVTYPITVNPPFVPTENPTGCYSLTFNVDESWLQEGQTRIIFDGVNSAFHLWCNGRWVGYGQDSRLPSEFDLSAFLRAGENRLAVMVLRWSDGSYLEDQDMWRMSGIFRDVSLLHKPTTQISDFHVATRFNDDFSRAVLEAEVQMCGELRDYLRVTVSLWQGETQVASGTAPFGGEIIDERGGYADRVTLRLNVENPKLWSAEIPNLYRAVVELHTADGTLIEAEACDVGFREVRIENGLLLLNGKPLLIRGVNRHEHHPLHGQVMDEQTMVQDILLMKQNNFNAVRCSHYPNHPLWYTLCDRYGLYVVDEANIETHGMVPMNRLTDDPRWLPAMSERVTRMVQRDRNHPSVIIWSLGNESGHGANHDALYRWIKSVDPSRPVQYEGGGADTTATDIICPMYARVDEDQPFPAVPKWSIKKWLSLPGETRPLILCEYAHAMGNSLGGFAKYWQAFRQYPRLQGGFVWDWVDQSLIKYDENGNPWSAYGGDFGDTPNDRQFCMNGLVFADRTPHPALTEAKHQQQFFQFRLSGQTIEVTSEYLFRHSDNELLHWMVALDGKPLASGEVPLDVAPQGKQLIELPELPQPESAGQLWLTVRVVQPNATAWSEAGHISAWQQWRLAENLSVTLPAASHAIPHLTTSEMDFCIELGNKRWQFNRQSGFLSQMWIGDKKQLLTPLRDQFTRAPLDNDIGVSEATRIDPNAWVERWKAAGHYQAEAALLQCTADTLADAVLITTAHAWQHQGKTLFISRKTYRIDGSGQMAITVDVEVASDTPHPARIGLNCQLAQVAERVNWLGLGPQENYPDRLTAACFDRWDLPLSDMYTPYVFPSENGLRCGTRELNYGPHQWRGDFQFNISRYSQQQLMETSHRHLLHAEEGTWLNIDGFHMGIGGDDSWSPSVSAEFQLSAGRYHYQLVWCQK

[3] = molecular target: T2, Kappa-type opioid receptor; assay type: functional; remark: listed apart in the source
[4] = molecular target: Voltage-dependent T-type calcium channel subunit alpha-1H (Homo sapiens, UniProt O95180); assay type: functional;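 also: channel activity triggered by adding a high calcium stimulation buffer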
Sequence of Voltage-dependent T-type calcium channel subunit alpha-1H (O95180 whole entry): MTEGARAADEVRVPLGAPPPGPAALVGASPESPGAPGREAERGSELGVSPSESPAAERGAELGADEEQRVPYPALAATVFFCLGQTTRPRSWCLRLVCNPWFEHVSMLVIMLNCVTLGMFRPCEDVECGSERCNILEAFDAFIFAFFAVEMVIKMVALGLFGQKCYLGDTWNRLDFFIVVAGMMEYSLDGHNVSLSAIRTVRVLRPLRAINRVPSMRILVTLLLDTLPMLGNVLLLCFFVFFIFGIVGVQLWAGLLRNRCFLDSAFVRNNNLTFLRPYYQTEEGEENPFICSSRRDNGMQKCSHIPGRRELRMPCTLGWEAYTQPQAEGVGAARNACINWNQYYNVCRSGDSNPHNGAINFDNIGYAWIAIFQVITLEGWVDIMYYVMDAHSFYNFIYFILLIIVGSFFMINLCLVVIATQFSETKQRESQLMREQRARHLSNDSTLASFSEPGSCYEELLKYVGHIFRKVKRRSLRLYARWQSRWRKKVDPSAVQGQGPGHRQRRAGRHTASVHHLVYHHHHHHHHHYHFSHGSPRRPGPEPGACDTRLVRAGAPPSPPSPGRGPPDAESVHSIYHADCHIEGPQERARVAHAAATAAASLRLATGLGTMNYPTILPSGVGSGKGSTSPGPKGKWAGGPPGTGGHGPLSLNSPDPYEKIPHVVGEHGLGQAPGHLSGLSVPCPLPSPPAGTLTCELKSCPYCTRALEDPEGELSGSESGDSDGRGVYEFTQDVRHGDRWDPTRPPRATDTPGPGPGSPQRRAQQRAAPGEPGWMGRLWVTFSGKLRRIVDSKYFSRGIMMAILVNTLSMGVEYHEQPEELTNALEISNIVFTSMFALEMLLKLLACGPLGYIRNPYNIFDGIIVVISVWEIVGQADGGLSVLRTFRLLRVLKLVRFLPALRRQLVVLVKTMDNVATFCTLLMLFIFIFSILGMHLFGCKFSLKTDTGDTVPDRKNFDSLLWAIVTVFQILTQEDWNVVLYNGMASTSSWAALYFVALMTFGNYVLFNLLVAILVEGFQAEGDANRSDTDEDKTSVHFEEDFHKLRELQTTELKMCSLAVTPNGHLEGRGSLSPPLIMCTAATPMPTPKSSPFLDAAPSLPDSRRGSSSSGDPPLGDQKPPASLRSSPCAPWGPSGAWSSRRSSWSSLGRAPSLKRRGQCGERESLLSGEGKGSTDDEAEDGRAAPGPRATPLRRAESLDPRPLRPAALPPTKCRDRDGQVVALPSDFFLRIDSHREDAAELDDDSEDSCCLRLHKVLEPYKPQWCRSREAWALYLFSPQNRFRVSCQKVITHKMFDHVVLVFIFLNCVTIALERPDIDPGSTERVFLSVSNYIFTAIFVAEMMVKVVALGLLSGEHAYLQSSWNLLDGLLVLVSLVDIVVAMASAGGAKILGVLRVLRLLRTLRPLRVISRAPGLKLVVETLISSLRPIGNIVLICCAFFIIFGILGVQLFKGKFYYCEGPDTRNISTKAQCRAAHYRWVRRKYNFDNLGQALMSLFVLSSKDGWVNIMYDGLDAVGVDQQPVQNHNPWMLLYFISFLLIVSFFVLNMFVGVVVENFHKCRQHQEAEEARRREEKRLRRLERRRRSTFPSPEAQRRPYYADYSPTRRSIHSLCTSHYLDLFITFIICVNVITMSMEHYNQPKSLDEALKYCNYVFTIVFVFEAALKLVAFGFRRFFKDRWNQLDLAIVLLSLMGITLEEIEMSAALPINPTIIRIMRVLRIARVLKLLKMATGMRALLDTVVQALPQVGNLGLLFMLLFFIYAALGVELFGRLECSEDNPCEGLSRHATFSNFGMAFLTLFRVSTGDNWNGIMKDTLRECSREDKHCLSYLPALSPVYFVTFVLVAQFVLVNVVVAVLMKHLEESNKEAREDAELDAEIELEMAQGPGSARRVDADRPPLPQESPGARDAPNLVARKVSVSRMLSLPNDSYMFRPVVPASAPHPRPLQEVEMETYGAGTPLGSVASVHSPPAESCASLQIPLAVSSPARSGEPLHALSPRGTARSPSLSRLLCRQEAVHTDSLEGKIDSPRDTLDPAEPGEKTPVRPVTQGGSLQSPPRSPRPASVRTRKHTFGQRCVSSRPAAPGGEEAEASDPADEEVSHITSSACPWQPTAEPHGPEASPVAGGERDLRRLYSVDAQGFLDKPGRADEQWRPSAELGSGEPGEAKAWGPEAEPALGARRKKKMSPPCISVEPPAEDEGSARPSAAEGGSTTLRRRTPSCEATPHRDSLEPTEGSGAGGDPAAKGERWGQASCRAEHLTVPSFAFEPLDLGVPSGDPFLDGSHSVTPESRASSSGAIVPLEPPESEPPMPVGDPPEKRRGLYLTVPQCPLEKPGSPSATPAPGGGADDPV

[5] = cytotoxicity toward NIH3T3 fibroblasts, dose response, counter-screen, cell-based, ATP luminescence, mouse fibroblasts (AID 2010); assay type: functional;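 also: cells exposed to compound for about 90 hours before reading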
[6] = inhibitors of intracellular T. cruzi replication, confirmation, NIH3T3 host cells, beta-gal luminescence (AID 2044); assay type: functional, cell-based;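 also: intracellular parasites grown in NIH/3T3 mouse fibroblasts as host cells; luminescent beta-galactosidase reporter signal from transgenic T. cruzi replicating inside host cells; inhibitors lower the luminescence signal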
[7] = molecular target: T3, Short transient receptor potential channel 4 (Mus musculus, UniProt Q9QUQ5); test: mouse TRPC4 channel inhibitors, dose response, cell-based, HEK293 TRPC4/mu-opioid, Fluo-4 calcium (AID 434942); assay type: functional;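 also: potency of inhibitors blocking the TRPC4 calcium response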
T3 sequence (Q9QUQ5 whole entry): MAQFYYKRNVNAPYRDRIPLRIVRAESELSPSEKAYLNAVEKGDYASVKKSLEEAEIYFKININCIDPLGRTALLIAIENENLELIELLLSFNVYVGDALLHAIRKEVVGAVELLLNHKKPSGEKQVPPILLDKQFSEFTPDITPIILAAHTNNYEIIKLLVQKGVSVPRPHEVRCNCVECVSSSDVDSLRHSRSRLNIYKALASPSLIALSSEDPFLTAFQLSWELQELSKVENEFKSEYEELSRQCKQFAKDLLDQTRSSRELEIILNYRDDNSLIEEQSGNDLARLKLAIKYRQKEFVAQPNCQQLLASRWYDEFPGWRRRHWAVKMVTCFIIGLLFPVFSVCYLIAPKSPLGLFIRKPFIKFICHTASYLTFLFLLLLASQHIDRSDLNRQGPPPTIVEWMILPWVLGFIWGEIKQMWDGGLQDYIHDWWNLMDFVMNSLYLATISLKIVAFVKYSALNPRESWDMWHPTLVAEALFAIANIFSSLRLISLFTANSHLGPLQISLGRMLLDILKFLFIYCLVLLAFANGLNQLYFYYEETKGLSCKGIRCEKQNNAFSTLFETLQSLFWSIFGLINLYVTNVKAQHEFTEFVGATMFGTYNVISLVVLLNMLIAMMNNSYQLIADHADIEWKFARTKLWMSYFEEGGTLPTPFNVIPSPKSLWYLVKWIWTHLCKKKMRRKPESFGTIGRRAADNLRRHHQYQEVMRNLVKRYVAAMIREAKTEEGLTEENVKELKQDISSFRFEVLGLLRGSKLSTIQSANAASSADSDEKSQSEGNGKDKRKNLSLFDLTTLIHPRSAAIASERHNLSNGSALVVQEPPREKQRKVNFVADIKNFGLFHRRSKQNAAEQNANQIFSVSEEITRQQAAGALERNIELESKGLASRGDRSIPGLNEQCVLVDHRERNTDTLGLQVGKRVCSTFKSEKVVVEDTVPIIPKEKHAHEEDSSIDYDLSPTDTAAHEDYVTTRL

[8] = molecular target: T4, Replicative DNA helicase DnaB (Mycobacterium tuberculosis, UniProt P9WMR3); test: DnaB intein splicing inhibitors, dose response, biochemical, cell-free fluorescence (AID 449749); assay type: functional
T4 sequence (P9WMR3 whole entry): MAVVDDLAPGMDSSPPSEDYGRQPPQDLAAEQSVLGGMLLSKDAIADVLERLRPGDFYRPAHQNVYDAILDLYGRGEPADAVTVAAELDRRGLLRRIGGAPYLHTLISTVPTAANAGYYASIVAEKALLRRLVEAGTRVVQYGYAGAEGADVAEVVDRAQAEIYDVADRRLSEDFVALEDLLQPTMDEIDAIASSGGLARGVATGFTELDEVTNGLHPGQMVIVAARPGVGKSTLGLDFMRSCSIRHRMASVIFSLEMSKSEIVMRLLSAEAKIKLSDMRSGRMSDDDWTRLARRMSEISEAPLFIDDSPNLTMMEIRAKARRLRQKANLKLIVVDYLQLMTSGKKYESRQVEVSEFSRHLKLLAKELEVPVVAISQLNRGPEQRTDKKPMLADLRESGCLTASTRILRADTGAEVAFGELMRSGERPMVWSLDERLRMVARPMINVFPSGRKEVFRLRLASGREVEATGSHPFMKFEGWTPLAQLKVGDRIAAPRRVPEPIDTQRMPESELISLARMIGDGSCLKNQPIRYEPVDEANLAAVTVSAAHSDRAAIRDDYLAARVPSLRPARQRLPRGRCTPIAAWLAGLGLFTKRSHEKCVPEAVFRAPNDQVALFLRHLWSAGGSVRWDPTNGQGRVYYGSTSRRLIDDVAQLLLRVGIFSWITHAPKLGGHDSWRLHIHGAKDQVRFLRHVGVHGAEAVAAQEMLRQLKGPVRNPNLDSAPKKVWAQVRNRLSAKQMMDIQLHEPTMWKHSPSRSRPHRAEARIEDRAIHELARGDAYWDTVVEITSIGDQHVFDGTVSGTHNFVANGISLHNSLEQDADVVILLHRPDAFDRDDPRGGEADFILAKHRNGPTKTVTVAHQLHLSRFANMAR

Large T antigen = Large T antigen (Simian virus 40, UniProt P03070); assay type: functional, Betapolyomavirus macacae;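 also: Confirmatory-stage PubChem screen for compounds that inhibit SV40 T antigen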
Aminopeptidase N = molecular target: T5, Aminopeptidase N (Plasmodium falciparum FcB1/Columbia, UniProt O96935); test: P. falciparum M1AAP inhibitors, biochemical, fluorogenic H-Leu-NHMec substrate, 1536-well (AID 1445); design: species or system Plasmodium falciparum 3D7, 3D7
T5 sequence (O96935 whole entry): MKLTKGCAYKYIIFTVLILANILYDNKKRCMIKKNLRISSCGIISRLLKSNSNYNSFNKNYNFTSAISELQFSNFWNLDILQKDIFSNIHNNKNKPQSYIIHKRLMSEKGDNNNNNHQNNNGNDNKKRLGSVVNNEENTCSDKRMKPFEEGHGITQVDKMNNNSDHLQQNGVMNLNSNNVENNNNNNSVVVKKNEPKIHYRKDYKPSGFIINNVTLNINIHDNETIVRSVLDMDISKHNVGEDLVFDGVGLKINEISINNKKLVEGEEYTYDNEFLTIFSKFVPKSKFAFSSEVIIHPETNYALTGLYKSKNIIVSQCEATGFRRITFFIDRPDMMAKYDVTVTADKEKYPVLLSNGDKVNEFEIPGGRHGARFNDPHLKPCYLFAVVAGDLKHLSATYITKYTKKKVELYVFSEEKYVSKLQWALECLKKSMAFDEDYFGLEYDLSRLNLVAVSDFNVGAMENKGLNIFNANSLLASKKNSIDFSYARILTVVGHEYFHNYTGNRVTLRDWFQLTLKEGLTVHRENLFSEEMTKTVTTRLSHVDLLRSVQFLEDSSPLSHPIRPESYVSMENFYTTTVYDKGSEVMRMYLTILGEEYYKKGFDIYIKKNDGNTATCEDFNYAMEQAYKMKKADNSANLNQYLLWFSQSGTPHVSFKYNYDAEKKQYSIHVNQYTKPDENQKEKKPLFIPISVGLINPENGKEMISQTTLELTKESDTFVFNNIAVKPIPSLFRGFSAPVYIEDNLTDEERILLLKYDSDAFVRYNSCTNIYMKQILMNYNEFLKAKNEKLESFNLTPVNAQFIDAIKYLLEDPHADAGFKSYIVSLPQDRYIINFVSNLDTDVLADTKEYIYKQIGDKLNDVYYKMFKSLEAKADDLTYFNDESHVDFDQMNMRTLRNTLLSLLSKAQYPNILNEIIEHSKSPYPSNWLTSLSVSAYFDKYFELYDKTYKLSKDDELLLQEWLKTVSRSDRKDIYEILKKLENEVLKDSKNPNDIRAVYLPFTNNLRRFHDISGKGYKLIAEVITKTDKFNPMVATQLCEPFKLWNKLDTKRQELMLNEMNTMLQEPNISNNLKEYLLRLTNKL

Protein RecA = molecular target: T6, Protein RecA (Mycobacterium tuberculosis, UniProt P9WHJ3); test: Fluorescence Cell-Free Homogeneous Dose Retest to Identify Inhibitors of RecA-Intein Splicing Activity. [Related pubchem assays (depositor defined):AID2097, AID2223, AID489010, AID492950]; assay type: functional
T6 sequence (P9WHJ3 whole entry): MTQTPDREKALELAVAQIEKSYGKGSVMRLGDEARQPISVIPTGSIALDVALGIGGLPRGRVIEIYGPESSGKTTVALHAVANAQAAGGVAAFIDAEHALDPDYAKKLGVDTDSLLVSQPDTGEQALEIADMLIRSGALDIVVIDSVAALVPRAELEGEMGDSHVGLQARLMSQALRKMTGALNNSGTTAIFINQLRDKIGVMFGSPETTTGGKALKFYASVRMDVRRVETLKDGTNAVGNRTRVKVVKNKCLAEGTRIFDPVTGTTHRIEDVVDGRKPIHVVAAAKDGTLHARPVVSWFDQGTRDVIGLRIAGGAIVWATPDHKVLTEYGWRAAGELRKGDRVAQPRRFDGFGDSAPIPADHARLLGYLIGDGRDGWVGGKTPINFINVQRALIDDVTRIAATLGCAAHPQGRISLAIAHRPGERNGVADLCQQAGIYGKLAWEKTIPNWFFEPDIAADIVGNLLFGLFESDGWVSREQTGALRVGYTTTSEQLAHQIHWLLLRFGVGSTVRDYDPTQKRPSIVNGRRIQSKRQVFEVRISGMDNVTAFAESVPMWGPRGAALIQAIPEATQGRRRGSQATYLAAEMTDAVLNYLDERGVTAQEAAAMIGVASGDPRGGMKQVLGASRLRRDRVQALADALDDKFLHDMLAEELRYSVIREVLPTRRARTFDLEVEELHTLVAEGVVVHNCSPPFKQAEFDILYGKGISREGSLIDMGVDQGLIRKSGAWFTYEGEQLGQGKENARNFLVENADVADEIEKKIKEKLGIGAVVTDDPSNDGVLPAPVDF

[9] = molecular target: Induced myeloid leukemia cell differentiation protein Mcl-1 (Homo sapiens, UniProt Q07820); assay type: functional
[10] = NIH-3T3 fibroblast cytotoxicity, dose response, cytotoxicity control, cell-based, fluorescence, Alamar Blue, secondary assay (AID 2327); assay type: functional;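 also: NIH-3T3 mouse fibroblasts cultured with fluconazole at 8 µg/mL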
[11] = C. albicans growth with fluconazole, confirmation, fluorescence, retest (AID 2467); assay type: functional, cell-based
Kallikrein-7 = Kallikrein-7 (Homo sapiens, UniProt P49862); test: Fluorescence Intensity-based biochemical primary high throughput dose response assay to identify activators of kallikrein-7 (K7) zymogen.
Trypsin = Trypsin (Sus scrofa, UniProt P00761); test: porcine trypsin inhibitors, dose response, selectivity assay for Rce1 protease inhibitor project, biochemical, quenched peptide fluorescence, cherry-pick (AID 488789)
Sequence of Trypsin (P00761 whole entry): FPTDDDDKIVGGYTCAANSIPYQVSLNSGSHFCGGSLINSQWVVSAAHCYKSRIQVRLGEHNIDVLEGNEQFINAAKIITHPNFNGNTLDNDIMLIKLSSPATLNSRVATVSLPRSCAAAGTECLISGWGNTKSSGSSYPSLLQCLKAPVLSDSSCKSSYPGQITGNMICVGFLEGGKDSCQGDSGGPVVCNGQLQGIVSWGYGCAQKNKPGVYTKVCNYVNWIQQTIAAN

Estrogen receptor beta [12] = molecular target: T7, Estrogen receptor beta (Homo sapiens, UniProt Q92731); test: ERβ–SRC-3 coactivator interaction inhibitors, confirmation, orthogonal assay, biochemical, ELISA, streptavidin-HRP readout (AID 1060)
T7 sequence (Q92731 whole entry): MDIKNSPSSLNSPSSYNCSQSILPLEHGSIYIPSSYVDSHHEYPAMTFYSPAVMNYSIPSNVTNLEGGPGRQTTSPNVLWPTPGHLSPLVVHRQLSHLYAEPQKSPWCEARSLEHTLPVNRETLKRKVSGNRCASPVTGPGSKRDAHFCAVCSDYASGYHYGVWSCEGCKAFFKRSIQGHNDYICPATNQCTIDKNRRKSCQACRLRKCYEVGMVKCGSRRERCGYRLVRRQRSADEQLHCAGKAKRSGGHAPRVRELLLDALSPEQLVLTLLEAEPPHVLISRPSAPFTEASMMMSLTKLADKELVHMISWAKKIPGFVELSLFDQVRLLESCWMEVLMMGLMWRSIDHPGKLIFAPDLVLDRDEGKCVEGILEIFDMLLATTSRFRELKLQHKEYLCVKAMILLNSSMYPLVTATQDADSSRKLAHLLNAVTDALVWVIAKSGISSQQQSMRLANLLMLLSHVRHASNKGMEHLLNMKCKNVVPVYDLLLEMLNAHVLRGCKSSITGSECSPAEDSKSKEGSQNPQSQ

Estrogen receptor beta [13] = molecular target: T7, Estrogen receptor beta

## COC(=O)C1=C(C)N(c2ccccc2)/C(=C/c2cccs2)C1=O
Bcl-2-like protein 10
  IC50: > 50 µM (inactive)

## O=S(=O)(c1ccccc1)N(F)S(=O)(=O)c1ccccc1
[1]
  IC50: 55.3 µM (active)

## CCCC1=C(C(=O)OCC)C(c2cc(Cl)cc(OC)c2OCC(=O)OCC)NC(=O)N1 (stereo not drawn)
Bcl-2-like protein 10
  IC50: > 100 µM (inactive)

## Cc1sc(Cc2nc(O)cs2)nc1-c1ccccc1
[2]
  IC50: 15.6 µM (active)
Beta-galactosidase
  EC50: > 31.5 µM (inactive)
[3]
  IC50: > 32 µM

## Oc1ccccc1C1=Nc2nc3ccccc3n2C(c2ccccc2)C1 (stereo not drawn)
[4]
  EC50: 6.95 µM (active)

## CCc1ccc(S(=O)(=O)NCCc2csc(-c3ccccc3)n2)s1
[4]
  EC50: 4.22 µM (active)

## Cc1nc2scc(-c3ccccc3)c2c(=O)n1N=C1C=CC(=O)C=C1
[2]
  IC50: 9.24 µM (active)
[1]
  IC50: 9.73 µM (active)
Beta-galactosidase
  EC50: > 31.5 µM (inactive)
[5]
  EC50: 7.47 µM (active)
[3]
  IC50: 16.5 µM
[6]
  EC50: 2.23 µM (active)
[7]
  EC50: 5.96 µM (active)

## O=C(O)COc1ccccc1C(Nc1cccnc1)c1cc(Cl)c2cccnc2c1O (stereo not drawn)
[8]
  AC50: > 380 µM (inactive)
Large T antigen
  IC50: 10.3 µM (active)
Aminopeptidase N
  IC50: 38.4 µM (active)
Protein RecA
  EC50: 11.8 µM (active)
[9]
  IC50: 1.71 µM (active)
[10]
  EC50: > 150 µM (inactive)
[11]
  EC50: > 38 µM (not active)

## O=C1NC(c2ccc(Br)cc2)Nc2ccccc21 (stereo not drawn)
Kallikrein-7
  EC50: > 69.5 µM (inactive)
Trypsin
  AC50: 15.3 µM (active)

## CSc1ccccc1NC(=O)c1noc2c1CCC2
Estrogen receptor beta [12]
  IC50: > 50 µM (not active)
Bcl-2-like protein 10
  IC50: 12.6 µM (active)
Estrogen receptor beta [13]
  IC50: 3.77 µM (active)

## COc1ccc(N(CC(=O)Nc2cccc(C(F)(F)F)c2)S(C)(=O)=O)cc1
[4]
  EC50: 7.98 µM (active)
